From ChEMBL document CHEMBL4184206, “Design, synthesis and evaluate of novel dual FGFR1 and HDAC inhibitors bearing an indazole scaffold” (Bioorg Med Chem, 2018)

Experiments:
[1] = biological target: T1, Protein deacetylase HDAC6 (Homo sapiens, UniProt Q9UBN7); assay: Inhibition of HDAC6 (unknown origin) preincubated for 10 mins followed by Ac-Leu-GlyLys(Ac)-AMC substrate addition measured after 30 mins by fluorescence based assay
T1 sequence (Q9UBN7 whole entry): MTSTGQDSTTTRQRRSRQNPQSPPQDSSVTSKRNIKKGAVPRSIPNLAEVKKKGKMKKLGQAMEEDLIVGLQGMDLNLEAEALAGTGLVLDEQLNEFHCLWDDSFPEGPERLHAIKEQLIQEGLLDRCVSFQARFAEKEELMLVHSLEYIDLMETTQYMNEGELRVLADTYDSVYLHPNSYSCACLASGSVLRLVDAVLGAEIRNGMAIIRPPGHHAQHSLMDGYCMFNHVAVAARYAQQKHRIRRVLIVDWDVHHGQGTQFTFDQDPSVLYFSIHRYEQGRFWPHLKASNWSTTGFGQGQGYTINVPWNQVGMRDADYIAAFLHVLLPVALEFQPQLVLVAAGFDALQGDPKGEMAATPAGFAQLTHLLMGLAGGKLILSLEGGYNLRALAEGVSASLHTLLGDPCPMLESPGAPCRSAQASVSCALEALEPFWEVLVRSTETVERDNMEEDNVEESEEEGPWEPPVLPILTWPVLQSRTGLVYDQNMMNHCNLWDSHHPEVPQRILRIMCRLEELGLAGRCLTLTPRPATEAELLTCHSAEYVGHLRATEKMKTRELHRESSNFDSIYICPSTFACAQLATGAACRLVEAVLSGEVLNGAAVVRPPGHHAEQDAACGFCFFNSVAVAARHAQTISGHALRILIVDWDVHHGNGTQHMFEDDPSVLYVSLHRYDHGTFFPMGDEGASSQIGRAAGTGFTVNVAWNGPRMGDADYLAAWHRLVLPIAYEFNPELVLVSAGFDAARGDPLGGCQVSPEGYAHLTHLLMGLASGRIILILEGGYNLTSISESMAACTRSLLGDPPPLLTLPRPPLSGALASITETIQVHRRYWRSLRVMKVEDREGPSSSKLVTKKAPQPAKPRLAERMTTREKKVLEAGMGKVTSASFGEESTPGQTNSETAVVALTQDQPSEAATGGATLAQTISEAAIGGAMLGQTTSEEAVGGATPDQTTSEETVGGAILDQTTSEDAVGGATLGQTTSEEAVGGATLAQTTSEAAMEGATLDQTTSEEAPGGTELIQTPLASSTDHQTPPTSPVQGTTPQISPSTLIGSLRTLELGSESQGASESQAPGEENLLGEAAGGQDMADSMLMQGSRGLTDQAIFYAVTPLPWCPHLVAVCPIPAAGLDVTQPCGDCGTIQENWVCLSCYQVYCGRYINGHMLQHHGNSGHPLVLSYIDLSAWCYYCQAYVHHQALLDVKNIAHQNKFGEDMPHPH

MCF7 = assay: Antiproliferative activity against human MCF7 cells after 48 hrs by CCK-8 assay; conditions: MCF7, 48 h

IC50 [1]	IC50 (MCF7)	Compound
41 nM	22000 nM	COc1ccc(-c2ccc3c(NC(=O)c4ccc(C(=O)NO)cc4)n[nH]c3c2)cc1
34 nM	9000 nM	CCOc1cccc(-c2ccc3c(NC(=O)c4ccc(C(=O)NO)cc4)n[nH]c3c2)c1
40 nM	28000 nM	COc1ccccc1-c1ccc2c(NC(=O)c3ccc(C(=O)NO)cc3)n[nH]c2c1
250 nM	> 100000 nM	Cc1cc(C)cc(-c2ccc3c(NC(=O)c4ccc(C(=O)NO)cc4)n[nH]c3c2)c1
281 nM	> 100000 nM	O=C(NO)c1ccc(C(=O)Nc2n[nH]c3cc(-c4ccc(Cl)cc4)ccc23)cc1
–	40.5 nM	CCN1CCN(c2ccc(C(=O)Nc3n[nH]c4cc(-c5cccc(OC)c5F)ccc34)cc2)CC1
33 nM	15200 nM	COc1ccc(-c2ccc3c(NC(=O)c4ccc(C(=O)NO)cc4)n[nH]c3c2)cc1OC
157 nM	> 100000 nM	O=C(NO)c1ccc(C(=O)Nc2n[nH]c3cc(-c4cccc(Cl)c4Cl)ccc23)cc1
218 nM	> 100000 nM	O=C(NO)c1ccc(C(=O)Nc2n[nH]c3cc(-c4cccc(OC(F)(F)F)c4)ccc23)cc1
58 nM	> 100000 nM	COc1cccc(-c2ccc3c(NC(=O)c4ccc(C(=O)NO)cc4)n[nH]c3c2)c1F
78 nM	> 100000 nM	CC(C)Oc1cccc(-c2ccc3c(NC(=O)c4ccc(C(=O)NO)cc4)n[nH]c3c2)c1
38 nM	> 100000 nM	O=C(NO)c1ccc(C(=O)Nc2n[nH]c3cc(-c4ccccc4)ccc23)cc1
147 nM	> 100000 nM	O=C(NO)c1ccc(C(=O)Nc2n[nH]c3cc(-c4ccc(Cl)c(Cl)c4)ccc23)cc1
64 nM	> 100000 nM	COc1ccc(F)cc1-c1ccc2c(NC(=O)c3ccc(C(=O)NO)cc3)n[nH]c2c1
345 nM	> 100000 nM	CCCOc1cccc(-c2ccc3c(NC(=O)c4ccc(C(=O)NO)cc4)n[nH]c3c2)c1
132 nM	> 100000 nM	COc1cccc(-c2ccc3c(NC(=O)c4ccc(C(=O)NO)cc4)n[nH]c3c2)c1
98 nM	> 100000 nM	O=C(NO)c1ccc(C(=O)Nc2n[nH]c3cc(-c4ccc(Cl)c(F)c4)ccc23)cc1
242 nM	> 100000 nM	COc1cc(OC)cc(-c2ccc3c(NC(=O)c4ccc(C(=O)NO)cc4)n[nH]c3c2)c1
65 nM	45000 nM	O=C(NO)c1ccc(C(=O)Nc2n[nH]c3cc(-c4ccccc4F)ccc23)cc1
59 nM	23000 nM	O=C(NO)c1ccc(C(=O)Nc2n[nH]c3cc(-c4ccccc4Cl)ccc23)cc1
69 nM	> 100000 nM	O=C(NO)c1ccc(C(=O)Nc2n[nH]c3cc(-c4cccc(Cl)c4)ccc23)cc1
385 nM	> 100000 nM	O=C(NO)c1ccc(C(=O)Nc2n[nH]c3cc(-c4c(Cl)cccc4Cl)ccc23)cc1
293 nM	> 100000 nM	O=C(NO)c1ccc(C(=O)Nc2n[nH]c3cc(-c4cc(Cl)cc(Cl)c4)ccc23)cc1
–	1400 nM	CCCCN(Cc1ccc(C(=O)NO)cc1)C(=O)Nc1ccccc1 [NEXTURASTAT A]
103 nM	> 100000 nM	O=C(NO)c1ccc(C(=O)Nc2n[nH]c3cc(-c4ccc(C(F)(F)F)cc4)ccc23)cc1
178 nM	> 100000 nM	O=C(NO)c1ccc(C(=O)Nc2n[nH]c3cc(-c4cc(Cl)ccc4Cl)ccc23)cc1
